Data on 18 molecules can be found in patent US9108947B2, “Inhibitors of the Renal Outer Medullary Potassium channel” (Merck Sharp & Dohme Corp., priority 2011, dated 2015).

Assay [1] addresses hROMK (hKir1.1) (Homo sapiens (Human), UniProt P48048). In words: Thallium Flux Assay (ROMK channel functional thallium flux, FLIPR-Tetra). It counts as cell-based. The settings on record: HEK293 cells stably expressing hROMK (hKir1.1); 30 min compound incubation. From the text: (§1) Several assays may be used to measure functional inhibition of the ROMK channel by compounds of the instant invention. One assay that can be used is an electrophysiology assay that measures the electrical current that is generated as potassium permeates through the channel. Another ROMK functional assay makes use of the ability of thallium to permeate through open ROMK channels and increase the fluorescence of a dye previously loaded into the cells. Under control conditions, cells loaded with dye and exposed to thallium-containing medium display a time-dependent increase in fluorescence, the rate of which depends on number of functional channels. When cells are incubated in the presence of a channel inhibitor, the increase in fluorescence is attenuated in a concentration-dependent manner, and IC50 values of inhibition by compounds can be accurately determined. This assay has been established with cell lines expressing either human, or rat ROMK channels, and operates in 384-well format.
HEK293 cells stably expressing hROMK (hKir1.1) were grown at 37° C. in a 10% CO2 humidified incubator in complete growth media: Dulbecco's Modified Eagle Medium supplemented with non-essential amino acids, Penicillin/Streptomycin/Glutamine, G418 and FBS. At >80% confluency, the media was aspirated from the flask and the sample was rinsed with 10 ml Calcium/Magnesium-free PBS. […] To dislodge the cell, the side of the flask was gently banged with a hand. The cells were triturated completely and then transferred to 25 ml complete media. The sample was then centrifuged at 1,500 rpm for 6 minutes, followed by resuspension in complete growth media and then cell concentration was determined. […] Under ideal growth conditions and appropriate tissue culture practices, this cell line is stable for 40-45 passages.
• FluxOR™ Reagent (Component A) • FluxOR™ Assay Buffer (Component B)—10× Concentrate • PowerLoad™ Concentrate (Component C)—100× Concentrate • Probenecid (Component D) Lyophilized sample is kept at −20° C. Water soluble, 100× after solubilization in 1 ml water. […] Store at 4° C. • Thallium sulfate (Tl2SO4) Concentrate (Component G)—50 mM in water. […] Can be stored at room temperature • Stimulant Buffer (prepared at 5× final concentration in 1× FluxOR™Chloride-Free Buffer): 7.5 mM Thallium sulfate and 0.75 mM Potassium sulfate (to give a final assay concentration of 3 mM Thallium 0.3 mM Potassium). Store at 4° C. when not in use. If kept sterile, this solution is good for months. Assay Protocol—
The ROMK channel functional thallium flux assay is performed in 384 wells, using the FLIPR-Tetra instrument. HEK-hKir1.1 cells are seeded in Poly-D-Lysine microplates and kept in a 37° C.-10% CO2 incubator overnight. On the day of the experiment, the growth media is replaced with the FluxOR™ reagent loading buffer and incubated, protected from light, at ambient temperature (23-25° C.) for 90 min. The loading buffer is replaced with assay buffer±test compound followed by 30 min incubation at ambient temperature, where the Thallium/Potassium stimulant is added to the microplate.
• 1. Seed HEK-hKir1.1 cells (50 μl at 20,000 cells/well) in 384-well PDL coated Microplates • 2. Allow cells to adhere overnight in humidified 37° C./10% CO2 incubator • 3. Completely remove cell growth media from microplate and replace with 25 μl loading buffer • 4. Incubate Microplate at room temperature, protected form light, for 90 min • 5. Remove loading buffer and replace with 25 μl 1× Assay Buffer±test compound. • 6. Incubate microplate at room temperature, protected form light, for 30 min • 7. […] Excitation=400 nm, Emission=460 & 580 nm. Collect data for 10 min. Data Calculation—
The fluorescence intensity of wells containing 3 μM of a standard control ROMK inhibitor of the present invention is used to define the ROMK-sensitive component of thallium flux. Fluorescence in the presence of test compounds is normalized to control values to provide % fluorescence change.

Assay [2] concerns the target Kir1.1 (ROMK1) (Homo sapiens (Human), UniProt P48048). In words: Electrophysiology Assay (whole cell voltage clamp, IonWorks Quattro). It is filed as cell-based. Conditions: Chinese hamster ovary cells stably expressing Kir1.1; block during voltage step to 0 mV; 6 minutes compound incubation; read-out: EP Assay IC50.
Text: as §1
Chinese hamster ovary cells stably expressing Kir1.1 channels were maintained in T-75 flasks in cell culture media in a humidified 10% CO2 incubator at 37° C. Prior to an experiment, Kir1.1 expression was induced by overnight incubation with 1 mM sodium butyrate. […] After centrifugation, the cell pellet was resuspended in approximately 4.0 ml of bath solution and placed in the IonWorks® instrument. The intracellular solution consisted of (in mM): 80 K gluconate, 40 KCl, 20 KF, 3.2 MgCl2, 3 EGTA, 5 Hepes, pH 7.4. Electrical access to the cytoplasm was achieved by perforation in 0.13 mg/ml amphotericin B for 4 minutes.
Voltage protocols and current recordings were performed using the IonWorks® HT software/hardware system. Currents were sampled at 1 kHz. No correction for liquid junction potentials was used. The test pulse, consisting of a 100 ms step to 0 mV from a holding potential of −70 mV, followed by a 100 ms voltage ramp from −70 mV to +70 mV, was applied before and after a 6 minutes compound incubation period. Test compounds were prepared by diluting DMSO stock solutions into the bath solution at 3× the final concentration and placed in the instrument in 96-well polypropylene plates. Current amplitudes were measured using the IonWorks® software.
A general note: The patch-clamp technique gives a direct electrical read-out from membranes.

Chain of Kir1.1 (ROMK1) (P48048 whole entry, species assumed): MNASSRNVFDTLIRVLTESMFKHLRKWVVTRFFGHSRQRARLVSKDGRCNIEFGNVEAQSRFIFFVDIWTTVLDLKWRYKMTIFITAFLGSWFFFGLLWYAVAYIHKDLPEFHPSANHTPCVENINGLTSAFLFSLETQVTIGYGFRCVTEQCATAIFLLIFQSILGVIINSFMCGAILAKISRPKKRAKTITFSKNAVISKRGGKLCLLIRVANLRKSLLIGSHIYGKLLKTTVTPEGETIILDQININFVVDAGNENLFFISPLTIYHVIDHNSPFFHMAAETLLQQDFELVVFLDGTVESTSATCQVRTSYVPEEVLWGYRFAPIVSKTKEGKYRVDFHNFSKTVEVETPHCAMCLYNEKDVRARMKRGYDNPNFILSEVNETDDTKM
Chain of hROMK (hKir1.1) (P48048 whole entry): as the sequence (P48048 whole entry, species assumed) above

The IC50 is the concentration that inhibits the measured activity by half. `Cc1c([C@@H](O)CN2CCCC2CNCC(O)c2ccc(C#N)cn2)ccc2c1COC2=O` (single isomer, unassigned) [Example 9A]: the IC50 in assay [1] is 188 nM; in assay [2] it was 321 nM.

As to `Cc1c([C@@H](O)CN2CCCC2CNCC(O)c2ccc(C#N)cn2)ccc2c1COC2=O` (single isomer, unassigned) [Example 9B], the IC50 in assay [1] came out at 290 nM; in assay [2], 254 nM.

`Cc1c([C@@H](O)CNC2C[C@H]3C[C@@H]2N(C[C@H](O)c2ccc4c(c2C)COC4=O)C3)ccc2c1COC2=O` (single isomer, unassigned) [Example 17A]: the results for the IC50 in assay [1] and in assay [2] were 500 nM and 1420 nM, respectively.

The molecule `Cc1c([C@@H](O)CNC2C[C@H]3C[C@@H]2N(C[C@H](O)c2ccc4c(c2C)COC4=O)C3)ccc2c1COC2=O` (single isomer, unassigned) [Example 17B] displayed an IC50 in assay [1] of 581 nM.

With `Cc1c(C(O)CN2CC[C@@H](NC[C@H](O)c3ccc4c(c3C)COC4=O)C2)ccc2c1COC2=O` (stereo in doubt) [Example 1, 5-{(1R)-1-Hydroxy-2-[(3R)-3-{[(2R)-2-hydroxy-2-(4-methyl-1-oxo-1,3-dihydro-2-benzofuran-5-yl)ethyl]amino}pyrrolidin-1-yl]ethyl}-4-methyl-2-benzofuran-1(3H)-one], the results for the IC50 in assay [1] and in assay [2] were 414 nM and 595 nM, respectively.

`Cc1c([C@@H](O)CNC2(C3CCN(C[C@H](O)c4ccc5c(c4C)COC5=O)C3)CCC2)ccc2c1COC2=O` (stereo partly drawn) [Example 2, 5-{(1R)-1-Hydroxy-2-[3-(1-{[(2R)-2-hydroxy-2-(4-methyl-1-oxo-1,3-dihydro-2-benzofuran-5-yl)ethyl]amino}cyclobutyl)pyrrolidin-1-yl]ethyl}-4-methyl-2-benzofuran-1(3H)-one]: the IC50 in assay [1] was found to be 172 nM; in assay [2] it was 420 nM.

On to `Cc1c([C@@H](O)CNCC2CCCN2C[C@H](O)c2ccc3c(c2C)COC3=O)ccc2c1COC2=O` (stereo partly drawn) [Example 3, 5-{(1R)-1-Hydroxy-2-[2-({[(2R)-2-hydroxy-2-(4-methyl-1-oxo-1,3-dihydro-2-benzofuran-5-yl)ethyl]amino}methyl)pyrrolidin-1-yl]ethyl}-4-methyl-2-benzofuran-1(3H)-one], for which the IC50 in assay [1] was 176 nM; in assay [2] it was 510 nM.

Turning to `Cc1c(C(CO)NCC2CCCN2C[C@H](O)c2ccc3c(c2C)COC3=O)ccc2c1COC2=O` (stereo partly drawn) [Example 4, 5-{(1R)-1-Hydroxy-2-[2-({[2-hydroxy-1-(4-methyl-1-oxo-1,3-dihydro-2-benzofuran-5-yl)ethyl]amino}methyl)pyrrolidin-1-yl]ethyl}-4-methyl-2-benzofuran-1(3H)-one], the IC50 in assay [1] came to 523 nM; in assay [2] it was 278 nM.

In the case of `Cc1c([C@@H](O)CNCC2CCCCN2C[C@H](O)c2ccc3c(c2C)COC3=O)ccc2c1COC2=O` (stereo partly drawn) [Example 5, 5-{(1R)-1-Hydroxy-2-[2-({[(2R)-2-hydroxy-2-(4-methyl-1-oxo-1,3-dihydro-2-benzofuran-5-yl)ethyl]amino}methyl)piperidin-1-yl]ethyl}-4-methyl-2-benzofuran-1(3H)-one], the IC50 in assay [1] is 82 nM.

As to `Cc1c(C(CO)NCC2CCCCN2C[C@H](O)c2ccc3c(c2C)COC3=O)ccc2c1COC2=O` (stereo partly drawn) [Example 6, 5-{(1R)-1-Hydroxy-2-[2-({[2-hydroxy-1-(4-methyl-1-oxo-1,3-dihydro-2-benzofuran-5-yl)ethyl]amino}methyl)piperidin-1-yl]ethyl}-4-methyl-2-benzofuran-1(3H)-one], the IC50 in assay [1] was 143 nM; in assay [2], 446 nM.

`Cc1c([C@@H](O)CNCC2(C)CCN(C[C@H](O)c3ccc4c(c3C)COC4=O)C2)ccc2c1COC2=O` (stereo partly drawn) [Example 7, 5-{(1R)-1-Hydroxy-2-[3-({[(2R)-2-hydroxy-2-(4-methyl-1-oxo-1,3-dihydro-2-benzofuran-5-yl)ethyl]amino}methyl)-3-methylpyrrolidin-1-yl]ethyl}-4-methyl-2-benzofuran-1(3H)-one] showed an IC50 in assay [1] of 277 nM.

As to `Cc1c([C@@H](O)CNCC2(C)CCCN(C[C@H](O)c3ccc4c(c3C)COC4=O)C2)ccc2c1COC2=O` (stereo partly drawn) [Example 8, 5-{(1R)-1-Hydroxy-2-[3-({[(2R)-2-hydroxy-2-(4-methyl-1-oxo-1,3-dihydro-2-benzofuran-5-yl)ethyl]amino}methyl)-3-methylpiperidin-1-yl]ethyl}-4-methyl-2-benzofuran-1(3H)-one], the IC50 in assay [1] was determined as 847 nM.

On to `Cc1c([C@@H](O)CN2CC[C@@H](NCC(O)c3ccc(C#N)cn3)C2)ccc2c1COC2=O` (stereo partly drawn) [Example 10, 6-(1-Hydroxy-2-((R)-1-((R)-2-hydroxy-2-(4-methyl-1-oxo-1,3-dihydroisobenzofuran-5-yl)ethyl)pyrrolidin-3-ylamino)ethyl)nicotinonitrile], for which the IC50 was found to be 504 nM in assay [1] and 2060 nM in assay [2].

Consider `Cc1c([C@@H](O)CN2CC[C@H](NCC(O)c3ccc(C#N)cn3)C2)ccc2c1COC2=O` (stereo partly drawn) [Example 11, 6-(1-Hydroxy-2-((S)-1-((R)-2-hydroxy-2-(4-methyl-1-oxo-1,3-dihydroisobenzofuran-5-yl)ethyl)pyrrolidin-3-ylamino)ethyl)nicotinonitrile], for which half-maximal inhibition in assay [1] (IC50) required 648 nM.

With `Cc1c([C@@H](O)CN[C@@H]2CCN(CC(O)c3ccc(C#N)cn3)C2)ccc2c1COC2=O` (stereo partly drawn) [Example 12, 6-(1-Hydroxy-2-((R)-3-((R)-2-hydroxy-2-(4-methyl-1-oxo-1,3-dihydroisobenzofuran-5-yl)ethylamino)pyrrolidin-1-yl)ethyl)nicotinonitrile], the IC50 is 542 nM in assay [1] and 1370 nM in assay [2].

In assay [1], `Cc1c([C@@H](O)CN2CC(CNS(=O)(=O)Cc3ccc(C#N)cc3)C2)ccc2c1COC2=O` [Example 16, (R)-1-(4-Cyanophenyl)-N-((1-(2-hydroxy-2-(4-methyl-1-oxo-1,3-dihydroisobenzofuran-5-yl)ethyl)azetidin-3-yl)methyl)methanesulfonamide] yielded an IC50 of 1040 nM.

In the case of `Cc1c([C@@H](O)CN2CCC(C3(Nc4nccn5cnnc45)CCC3)C2)ccc2c1COC2=O` (stereo partly drawn) [Example 23, 5-((1R)-2-(3-(1-([1,2,4]Triazolo[4,3-a]pyrazin-8-ylamino)cyclobutyl)pyrrolidin-1-yl)-1-hydroxyethyl)-4-methylisobenzofuran-1(3H)-one], the IC50 in assay [1] was determined as 401 nM.

In turn, `Cc1c([C@@H](O)CN2CCC(CNc3nccn4cnnc34)(c3ccccc3)C2)ccc2c1COC2=O` (stereo partly drawn) [Example 24, 5-((1R)-2-(3-(([1,2,4]Triazolo[4,3-a]pyrazin-8-ylamino)methyl)-3-phenylpyrrolidin-1-yl)-1-hydroxyethyl)-4-methylisobenzofuran-1(3H)-one] displayed an IC50 in assay [1] of 893 nM.
